Data reported in patent publication US12642797B2, “Coated granule, solid dispersion, and preparation containing vortioxetine hydrobromide for oral taste masking” (Seasons Biotechnology (Taizhou) Co., Ltd., priority 2019, dated 2026).
Structures can show the parent of a compound that is named as a salt.

Key:
oral cavity and tongue = experiment: Taste and irritation test by subjects (self-made sample vs reference sample); assay type: in vivo, human
Procedure: In the examples, the taste masking effects of test samples were evaluated by the subject's perception of the bitterness and irritation of the oral cavity and tongue. The Taste and Irritation Classification Tested by the Subjects: [table]

tongue = experiment: Comparative Example 2: comparison of taste of solid dispersion, hemihydrobromide powder and marketed drug product (20 subjects); assay type: in vivo, human; conditions: equivalent to 10 mg vortioxetine
Procedure: The solid dispersion equivalent to 10 mg vortioxetine prepared in Example 9b, vortioxetine hemihydrobromide powder equivalent to 10 mg vortioxetine, and the powder compressed by vortioxetine hydrobromide marketed drug product equivalent to 10 mg of vortioxetine hydrobromide passed through 100 mesh sieve, then they were put directly in front of the upper part of the tongue for one minute. There were 20 subjects in each powder group. After trying one powder taste, rinsed your mouth, and try another powder after there was no irritation. After trying the taste, record the bitterness level and tongue irritation, spit it out a few seconds later, rinse your mouth, record the time for the irritation to subside, eat 1-1.5 hours later, and record the irritation again.

[1] = Solubility in sodium acetate medium pH 6.8 simulating the oral environment (USP method); assay type: physicochemical; conditions: sodium acetate medium, pH 6.8, aqueous buffer, sodium acetate medium pH 6.8, USP method; read-out: Solubility
[2] = average of 5 subjects, powder equivalent to 20 mg of vortioxetine

## Br.Cc1ccc(Sc2ccccc2N2CCNCC2)c(C)c1 [Reference sample (1b), vortioxetine hydrobromide form α]
Oral cavity and tongue; Subject 1, 0-1 minute, powder equivalent to 20 mg of vortioxetine tasted
  Instantaneous irritation: +++ (+ + + Strong irritation, intolerable)
Oral cavity and tongue; Subject 1, powder equivalent to 20 mg of vortioxetine tasted
  Delayed irritation: >30 min
Oral cavity and tongue; Subject 2, 0-1 minute, powder equivalent to 20 mg of vortioxetine tasted
  Instantaneous irritation: +++ (+ + + Strong irritation, intolerable)
Oral cavity and tongue; Subject 2, powder equivalent to 20 mg of vortioxetine tasted
  Delayed irritation: >30 min
Oral cavity and tongue; Subject 3, 0-1 minute, powder equivalent to 20 mg of vortioxetine tasted
  Instantaneous irritation: +++ (+ + + Strong irritation, intolerable)
Oral cavity and tongue; Subject 3, powder equivalent to 20 mg of vortioxetine tasted
  Delayed irritation: >30 min
Oral cavity and tongue; Subject 4, 0-1 minute, powder equivalent to 20 mg of vortioxetine tasted
  Instantaneous irritation: +++ (+ + + Strong irritation, intolerable)
Oral cavity and tongue; Subject 4, powder equivalent to 20 mg of vortioxetine tasted
  Delayed irritation: >30 min
Oral cavity and tongue; Subject 5, 0-1 minute, powder equivalent to 20 mg of vortioxetine tasted
  Instantaneous irritation: +++ (+ + + Strong irritation, intolerable)
Oral cavity and tongue; Subject 5, powder equivalent to 20 mg of vortioxetine tasted
  Delayed irritation: >30 min
Oral cavity and tongue; [2]
  Delayed irritation, time to disappear: more than 30 minutes
  Instantaneous irritation: +++ (+ + + Strong irritation, intolerable)

## Br.Cc1ccc(Sc2ccccc2N2CCNCC2)c(C)c1.Cc1ccc(Sc2ccccc2N2CCNCC2)c(C)c1 [Vortioxetine hemihydrobromide powder]
tongue
  Number of subjects experiencing different irritation: Basically no irritation: 6
tongue; no irritation after gargling
  Number of subjects experiencing different irritation: Slightly irritating, tolerable: 12^(2)
tongue; subside time more than 2 hours, not subsided after eating
  Number of subjects experiencing different irritation: unbearable: 2^(1)

## Br.Cc1ccc(Sc2ccccc2N2CCNCC2)c(C)c1.Cc1ccc(Sc2ccccc2N2CCNCC2)c(C)c1 [vortioxetine hemihydrobromide]
Oral cavity and tongue; [2]
  Delayed irritation, time to disappear: more than 30 minutes
  Instantaneous irritation: ++ (+ + Irritating, tolerable)

## Cc1ccc(Sc2ccccc2N2CCNCC2)c(C)c1 [vortioxetine hydrobromide, 1-[2-(2,4-dimethyl-phenylsulfanyl)-phenyl]piperazine hydrobromide]
[1]
  solubility: 150 µg/mL
Oral cavity and tongue; Subject 1, 0-1 minute, powder equivalent to 20 mg of vortioxetine tasted, listed as Reference sample (2b), hydrobromide
  Instantaneous irritation: +++ (+ + + Strong irritation, intolerable)
Oral cavity and tongue; Subject 1, powder equivalent to 20 mg of vortioxetine tasted, listed as Reference sample (2b), hydrobromide
  Delayed irritation: >30 min
Oral cavity and tongue; Subject 1, powder equivalent to 20 mg of vortioxetine tasted, listed as Reference sample (4b), hydrobromide
  Delayed irritation: >30 min
Oral cavity and tongue; Subject 1, powder equivalent to 20 mg of vortioxetine tasted, listed as Reference sample (4c), hydrobromide
  Delayed irritation: >30 min
Oral cavity and tongue; Subject 1, powder equivalent to 20 mg of vortioxetine tasted, listed as Reference sample (7b), hydrobromide
  Delayed irritation: >30 min
Oral cavity and tongue; Subject 2, 0-1 minute, powder equivalent to 20 mg of vortioxetine tasted, listed as Reference sample (2b), hydrobromide
  Instantaneous irritation: ++ (+ + Irritating, tolerable)
Oral cavity and tongue; Subject 2, powder equivalent to 20 mg of vortioxetine tasted, listed as Reference sample (2b), hydrobromide
  Delayed irritation: >30 min
Oral cavity and tongue; Subject 2, powder equivalent to 20 mg of vortioxetine tasted, listed as Reference sample (4b), hydrobromide
  Delayed irritation: >30 min
Oral cavity and tongue; Subject 2, powder equivalent to 20 mg of vortioxetine tasted, listed as Reference sample (4c), hydrobromide
  Delayed irritation: >30 min
Oral cavity and tongue; Subject 2, powder equivalent to 20 mg of vortioxetine tasted, listed as Reference sample (7b), hydrobromide
  Delayed irritation: >30 min
Oral cavity and tongue; Subject 3, 0-1 minute, powder equivalent to 20 mg of vortioxetine tasted, listed as Reference sample (2b), hydrobromide
  Instantaneous irritation: +++ (+ + + Strong irritation, intolerable)
Oral cavity and tongue; Subject 3, powder equivalent to 20 mg of vortioxetine tasted, listed as Reference sample (2b), hydrobromide
  Delayed irritation: >30 min
Oral cavity and tongue; Subject 3, powder equivalent to 20 mg of vortioxetine tasted, listed as Reference sample (4b), hydrobromide
  Delayed irritation: >30 min
Oral cavity and tongue; Subject 3, powder equivalent to 20 mg of vortioxetine tasted, listed as Reference sample (4c), hydrobromide
  Delayed irritation: >30 min
Oral cavity and tongue; Subject 3, powder equivalent to 20 mg of vortioxetine tasted, listed as Reference sample (7b), hydrobromide
  Delayed irritation: >30 min
Oral cavity and tongue; Subject 4, 0-1 minute, powder equivalent to 20 mg of vortioxetine tasted, listed as Reference sample (2b), hydrobromide
  Instantaneous irritation: ++ (+ + Irritating, tolerable)
Oral cavity and tongue; Subject 4, 0-1 minute, powder equivalent to 20 mg of vortioxetine tasted, listed as Reference sample (4b), hydrobromide
  Instantaneous irritation: +++ (+ + + Strong irritation, intolerable)
Oral cavity and tongue; Subject 4, powder equivalent to 20 mg of vortioxetine tasted, listed as Reference sample (2b), hydrobromide
  Delayed irritation: >30 min
Oral cavity and tongue; Subject 4, powder equivalent to 20 mg of vortioxetine tasted, listed as Reference sample (4b), hydrobromide
  Delayed irritation: >30 min
Oral cavity and tongue; Subject 4, powder equivalent to 20 mg of vortioxetine tasted, listed as Reference sample (4c), hydrobromide
  Delayed irritation: >30 min
Oral cavity and tongue; Subject 4, powder equivalent to 20 mg of vortioxetine tasted, listed as Reference sample (7b), hydrobromide
  Delayed irritation: >30 min
Oral cavity and tongue; Subject 5, 0-1 minute, powder equivalent to 20 mg of vortioxetine tasted, listed as Reference sample (2b), hydrobromide
  Instantaneous irritation: +++ (+ + + Strong irritation, intolerable)
Oral cavity and tongue; Subject 5, 0-1 minute, powder equivalent to 20 mg of vortioxetine tasted, listed as Reference sample (4b), hydrobromide
  Instantaneous irritation: +++ (+ + + Strong irritation, intolerable)
Oral cavity and tongue; Subject 5, powder equivalent to 20 mg of vortioxetine tasted, listed as Reference sample (2b), hydrobromide
  Delayed irritation: >30 min
Oral cavity and tongue; Subject 5, powder equivalent to 20 mg of vortioxetine tasted, listed as Reference sample (4b), hydrobromide
  Delayed irritation: >30 min
Oral cavity and tongue; Subject 5, powder equivalent to 20 mg of vortioxetine tasted, listed as Reference sample (4c), hydrobromide
  Delayed irritation: >30 min
Oral cavity and tongue; Subject 5, powder equivalent to 20 mg of vortioxetine tasted, listed as Reference sample (7b), hydrobromide
  Delayed irritation: >30 min
Oral cavity and tongue; average of 5 subjects, powder equivalent to 20 mg of vortioxetine, listed as Reference sample (2b), hydrobromide
  Instantaneous irritation: +++ (+ + + Strong irritation, intolerable)
Oral cavity and tongue; average of 5 subjects, powder equivalent to 20 mg of vortioxetine, listed as Reference sample (4b), hydrobromide
  Instantaneous irritation: +++ (+ + + Strong irritation, intolerable)
Oral cavity and tongue; average of 5 subjects, powder equivalent to 20 mg of vortioxetine, listed as Reference sample (4c), hydrobromide
  Instantaneous irritation: +++ (+ + + Strong irritation, intolerable)
Oral cavity and tongue; average of 5 subjects, powder equivalent to 20 mg of vortioxetine, listed as Reference sample (7b), hydrobromide
  Instantaneous irritation: +++ (+ + + Strong irritation, intolerable)
Oral cavity and tongue; average of 5 subjects, powder equivalent to 20 mg of vortioxetine, listed as Reference sample (9b), hydrobromide
  Instantaneous irritation: +++ (+ + + Strong irritation, intolerable)
Oral cavity and tongue; average of 5 subjects, powder equivalent to 20 mg of vortioxetine, listed as Reference sample (10), hydrobromide
  Instantaneous irritation: ++ (+ + Irritating, tolerable)
Oral cavity and tongue; average of 5 subjects, powder equivalent to 20 mg of vortioxetine, listed as Reference sample (11b), hydrobromide
  Instantaneous irritation: +++ (+ + + Strong irritation, intolerable)
Oral cavity and tongue; average of 5 subjects, powder equivalent to 20 mg of vortioxetine, listed as Reference sample (11c), hydrobromide
  Instantaneous irritation: +++ (+ + + Strong irritation, intolerable)
Oral cavity and tongue; average of 5 subjects, powder equivalent to 20 mg of vortioxetine, listed as Reference sample (14b), hydrobromide
  Instantaneous irritation: +++ (+ + + Strong irritation, intolerable)
